Laboratory results from PubChem BioAssay (NCI).
Values joined by “and” are separate entries in the source; they are usually repeats but may differ in a detail not shown here. Equal entries are not always repeated.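 Step 1: Grow cells in 96-well plates. Step 2: Expose to compound for 48 hours at 5 concentrations. Step 3: Interpolate endpoints linearly; if unreached, use highest concentration. The concentration for 50% growth inhibition is given as GI50. TGI denotes the concentration required for complete inhibition of growth.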 *1 amine or outer side, *2 acyl side, *3 side chain or, on linkers, in order; H or OH if unused. Where a SMILES comes first, the peptide text is derived from it. Bridges are numbered along the chain shown (N, C = ends). Roman numbers before positions name the chains, in order. [ ]: non-standard residue; d: D form. Actinocin(9to1) = Cc1c2oc3c(C)ccc(C(=O)[*:1])c3nc-2c(C(=O)[*:2])c(N)c1=O; NMeF = CN[CH](Cc1ccccc1)C(=O)O; Sar = CNCC(=O)O

Columns and labels:
Assay in all cases: NCI anticancer screen, dose series, 48 h
A549 NSCLC = test system: A549 NSCLC
EKVX NSCLC = test system: EKVX NSCLC
HS 578T breast = test system: HS 578T breast
HT29 colon = test system: HT29 colon
LOX IMVI melanoma = test system: LOX IMVI melanoma
MDA-MB-231 breast = test system: MDA-MB-231 breast
NCI-H23 lung = test system: NCI-H23 lung
SW-620 colon = test system: SW-620 colon
TK-10 renal = test system: TK-10 renal
U251 CNS = test system: U251 CNS

Structure (SMILES)	GI50 (A549 NSCLC)	TGI (A549 NSCLC)	GI50 (EKVX NSCLC)	TGI (EKVX NSCLC)	GI50 (HS 578T breast)	TGI (HS 578T breast)	GI50 (HT29 colon)	TGI (HT29 colon)	GI50 (LOX IMVI melanoma)	TGI (LOX IMVI melanoma)	GI50 (MDA-MB-231 breast)	TGI (MDA-MB-231 breast)	GI50 (NCI-H23 lung)	TGI (NCI-H23 lung)	GI50 (SW-620 colon)	TGI (SW-620 colon)	GI50 (TK-10 renal)	TGI (TK-10 renal)	GI50 (U251 CNS)	TGI (U251 CNS)
Oc1ccc(N=Nc2ccccn2)c(O)c1	2.94 µM	> 100 µM	0.407 µM	> 100 µM	59.6 µM	> 100 µM	0.434 µM	> 100 µM	0.365 µM	> 100 µM	0.641 µM	> 100 µM	2.66 µM	> 100 µM	0.757 µM	> 100 µM	0.661 µM	> 100 µM	0.843 µM	> 100 µM
Cc1cc(C(=O)c2ccccc2)c(C)c2c1[nH]c1ccc(Cl)cc12	0.0834 µM	> 100 µM	0.126 µM	> 100 µM	0.0501 µM	27.8 µM	0.0393 µM	1.93 µM	0.0642 µM	10.3 µM	0.255 µM	5.71 µM	0.101 µM	> 47 µM	0.0497 µM	> 100 µM	3.11 µM	31.3 µM	0.0612 µM	16.2 µM
C=C1C(=O)O[C@H]2[C@H]1CC/C(COC(=O)NCc1ccc(Cn3c(=O)sn(-c4ccccc4)c3=O)cc1)=C\CC[C@@]1(C)O[C@@H]21	6.22 µM	20.6 µM	1.85 µM	4.38 µM	4.14 µM	33.1 µM	2.15 µM	4.14 µM	1.62 µM	3.07 µM	1.71 µM	3.52 µM	3.55 µM	12.6 µM	1.91 µM	3.78 µM	2.21 µM	4.05 µM	2.37 µM	5.28 µM
COC(=O)C(C)NC(=O)c1ccccc1I(OS(=O)(=O)C(F)(F)F)c1ccccc1 (stereo not given)	30.6 µM	> 75.2 µM	25.6 µM	88.9 µM	19.6 µM	47.9 µM	23.1 µM	> 61.4 µM	22.5 µM	> 60.6 µM	15.6 µM	34.5 µM	18.5 µM	> 53.3 µM	20.9 µM	44 µM	21 µM	57.6 µM	18.2 µM	38.5 µM
O=C(O)/C(=C\c1ccncc1)c1cccc2ccccc12	–	> 100 µM	–	> 100 µM	–	> 100 µM	–	> 100 µM	–	> 100 µM	–	> 100 µM	–	> 100 µM	–	> 100 µM	–	> 100 µM	–	> 100 µM
CN(C)CCCn1c(-c2nonc2N)nc2cnccc21	> 25 µM	> 25 µM	> 25 µM	> 25 µM	19.1 µM	> 25 µM	> 25 µM	> 25 µM	> 25 µM	> 25 µM	> 25 µM	> 25 µM	> 25 µM	> 25 µM	> 25 µM	> 25 µM	> 9.98 µM	> 25 µM	> 25 µM	> 25 µM
CC1=NN(c2nc(N)nc(/C=C\c3ccc([N+](=O)[O-])s3)n2)C(C)(C)C1	> 100 µM	> 100 µM	> 100 µM	> 100 µM	> 100 µM	> 100 µM	56.4 µM	> 100 µM	> 100 µM	> 100 µM	> 100 µM	> 100 µM	> 100 µM	> 100 µM	> 100 µM	> 100 µM	> 100 µM	> 100 µM	> 100 µM	> 100 µM
CS(=O)(=O)N(c1cc(-c2ccc3ncnc(Nc4cccc(Cl)c4)c3c2)cnc1Cl)S(C)(=O)=O	1.03 µM	4.24 µM	0.357 µM	2.25 µM	0.236 µM	6.08 µM	0.364 µM	58.8 µM	0.427 µM	2.26 µM	0.925 µM	6.21 µM	0.417 µM	3.72 µM	0.742 µM	13.4 µM	0.145 µM	0.985 µM	0.782 µM	8.07 µM
O=C(NC(=S)Nc1cc(Cl)ccc1O)c1cccc(Br)c1	6.19 µM	> 100 µM	17.1 µM	> 100 µM	6.85 µM	41 µM	69.3 µM	> 100 µM	15.8 µM	> 100 µM	17 µM	> 100 µM	7.93 µM	> 100 µM	4.77 µM	> 100 µM	17.1 µM	78.9 µM	3.95 µM	> 100 µM
COc1c(B(O)O)cc(F)cc1-c1nc2ccc3[nH]ncc3c2c2c1CCCC2	1.17 µM	16 µM	2.37 µM	10.2 µM	0.0173 µM	5.43 µM	3.07 µM	21.1 µM	0.727 µM	3.43 µM	< 0.01 µM	15 µM	2.02 µM	7.61 µM	0.66 µM	11.2 µM	< 0.01 µM	9.43 µM	1.6 µM	13.1 µM
CC(O)c1cc(C(=O)N[C@@H](C)Cn2ccc(-c3ccc(C#N)c(Cl)c3)n2)n[nH]1 (stereo not given in full)	85.4 µM	> 100 µM	36.8 µM	> 100 µM	62.7 µM	> 100 µM	> 100 µM	> 100 µM	87.2 µM	> 100 µM	53.3 µM	> 100 µM	76 µM	> 100 µM	> 100 µM	> 100 µM	> 100 µM	> 100 µM	> 100 µM	> 100 µM
Cc1c2oc3c(C)ccc(C(=O)NC4C(=O)NC(C(C)C)C(=O)N5CCCC5C(=O)N(C)CC(=O)N(C)C(Cc5ccccc5)C(=O)OC4C)c3nc-2c(C(=O)NC2C(=O)NC(C(C)C)C(=O)N3CCCC3C(=O)N(C)CC(=O)N(C)C(Cc3ccccc3)C(=O)OC2C)c(N)c1=O (stereo not given) (I: TVP[Sar][NMeF] / II: TVP[Sar][NMeF]; ester I:1-I:C, II:1-II:C; linker I:N-II:N via Actinocin(9to1); configuration not given here)	< 0.01 µM and 0.00145 µM	0.295 µM and > 1 µM	< 0.01 µM and 0.0389 µM	0.0931 µM and > 0.603 µM	–	< 0.01 µM and 0.0685 µM	< 0.01 µM and 0.00123 µM	–	< 0.01 µM and 0.00103 µM	< 0.01 µM	< 0.01 µM and 0.0317 µM	–	–	< 0.01 µM and 0.0376 µM	–	1.27 µM and 0.139 µM	< 0.01 µM and 0.049 µM	> 1 µM	< 0.01 µM and 0.0022 µM	< 0.0435 µM and 0.159 µM
Oc1ccc(Cc2cc(Cl)cc(Cl)c2O)cc1Cl	–	41.3 µM	–	40.2 µM	–	37.2 µM	–	43.9 µM	–	31.4 µM	–	34.3 µM	–	32.3 µM	–	41.2 µM	–	30.6 µM	–	36.2 µM
